Here are results for eight compounds from PubChem BioAssay (NCI).

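Dose response: 5 concentrations. Exposure: 48 h. Format: 96-well plates. Endpoint: linear interpolation; highest concentration if not reached. TGI: concentration producing complete growth inhibition.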

Among the test systems are M14 melanoma; K-562 leukemia; HCT-116 colon; SK-MEL-5 melanoma; NCI-H226 lung; OVCAR-4 ovarian; SNB-75 CNS; OVCAR-5 ovarian; SK-MEL-28 melanoma; RPMI-8226 leukemia; MDA-MB-231 breast; NCI/ADR-RES ovarian; SK-OV-3 ovarian; DU-145 prostate; KM12 colon; CAKI-1 renal; LOX IMVI melanoma.
What all share (experiment): inhibition of tumour cell growth, NCI panel, 48 h

For `O=C1c2c(O)cccc2Cc2cc(CO)cc(O)c21`, the TGI was 10.9 µM in the assay on M14 melanoma; greater than 100 µM in the assay on K-562 leukemia; 16.7 µM in the assay with HCT-116 colon; 3.75 µM in the assay with SK-MEL-5 melanoma; 17.3 µM in the assay on NCI-H226 lung; 14.4 µM with OVCAR-4 ovarian. For the same compound, the TGI in the assay on SNB-75 CNS is 5.44 µM; in the assay with OVCAR-5 ovarian it was 15.2 µM; in the assay with SK-MEL-28 melanoma, 27.3 µM; in the assay with RPMI-8226 leukemia it was 7.34 µM; with MDA-MB-231 breast it was 5.67 µM; in the assay on NCI/ADR-RES ovarian, 15.1 µM.

As for `O=C(NC(CCCCN1C(=O)c2ccccc2C1=O)P(=O)(Oc1ccccc1)Oc1ccccc1)OCc1ccccc1` (stereo not drawn), the TGI with M14 melanoma, in the assay on SK-OV-3 ovarian, in the assay with SK-MEL-5 melanoma, in the assay with DU-145 prostate, in the assay with NCI-H226 lung and in the assay with SNB-75 CNS was greater than 100 µM each time. The TGI with KM12 colon, in the assay on OVCAR-5 ovarian, in the assay on SK-MEL-28 melanoma, in the assay on RPMI-8226 leukemia, with CAKI-1 renal and in the assay on NCI/ADR-RES ovarian was greater than 100 µM each time.

For the compound `COC(=O)[C@H](C)N(C)C(=O)[C@H](C)N1[C@@H](c2ccccc2)COC1(C)C`, the TGI in the assay with M14 melanoma, in the assay with K-562 leukemia, with HCT-116 colon, in the assay with SK-OV-3 ovarian, in the assay with SK-MEL-5 melanoma and in the assay with NCI-H226 lung was greater than 100 µM throughout. Besides, the TGI in the assay with OVCAR-4 ovarian, in the assay on SNB-75 CNS, in the assay on KM12 colon, with OVCAR-5 ovarian, with SK-MEL-28 melanoma and in the assay with RPMI-8226 leukemia was greater than 100 µM each time. In addition, the TGI in the assay on LOX IMVI melanoma, in the assay on MDA-MB-231 breast, with CAKI-1 renal and with NCI/ADR-RES ovarian was greater than 100 µM in each case.

Consider `O=C1c2ccccc2C(=O)c2sc(Nc3ccc([N+](=O)[O-])cc3)nc21`, for which the TGI in the assay on M14 melanoma is 5.91 µM; in the assay with K-562 leukemia, 5.98 µM; with HCT-116 colon, 15.2 µM; in the assay with SK-OV-3 ovarian, 36.8 µM; in the assay with SK-MEL-5 melanoma it was 6.38 µM; in the assay on DU-145 prostate it was 33.5 µM. For the same compound, the TGI in the assay on NCI-H226 lung stood at 35.9 µM; in the assay on OVCAR-4 ovarian, 11 µM; in the assay with SNB-75 CNS, 21.1 µM; with KM12 colon, 25.8 µM; with OVCAR-5 ovarian, 29.8 µM; with SK-MEL-28 melanoma, 25.7 µM. In addition, the TGI came out at 9.1 µM in the assay on RPMI-8226 leukemia, 4.66 µM in the assay with LOX IMVI melanoma, 6.39 µM in the assay on MDA-MB-231 breast and 12 µM in the assay with CAKI-1 renal.

Turning to `COC1(OC)C2C=CC1C([C@](C)(N)CO)C2` (stereo partly drawn), the TGI in the assay with M14 melanoma, in the assay with K-562 leukemia, with HCT-116 colon, in the assay with SK-OV-3 ovarian, in the assay on SK-MEL-5 melanoma and in the assay with DU-145 prostate was greater than 100 µM throughout. For the same compound, the TGI in the assay on NCI-H226 lung, in the assay on OVCAR-4 ovarian, with SNB-75 CNS, in the assay on KM12 colon, in the assay with OVCAR-5 ovarian and with SK-MEL-28 melanoma was greater than 100 µM each time. In addition, the TGI with MDA-MB-231 breast and in the assay on CAKI-1 renal was greater than 100 µM in each case.

As for `O=C(O)CCC(NC(=O)c1ccc(CNc2nc3cc(C(F)(F)F)ccc3nc2C(=O)O)cc1)C(=O)O` (stereo not drawn), the TGI in the assay on M14 melanoma, in the assay on K-562 leukemia, with HCT-116 colon, in the assay on SK-OV-3 ovarian, in the assay on DU-145 prostate and in the assay with NCI-H226 lung was greater than 100 µM in each case. In addition, the TGI with OVCAR-4 ovarian, in the assay with SNB-75 CNS, with KM12 colon, in the assay with OVCAR-5 ovarian, in the assay with SK-MEL-28 melanoma and with LOX IMVI melanoma was greater than 100 µM each time. Besides, the TGI with CAKI-1 renal and in the assay with NCI/ADR-RES ovarian was greater than 100 µM throughout.

Take `Cc1ccc(NC(=O)CCC(=O)C2Cc3ccccc3C2=O)cc1C` (stereo not drawn): the TGI in the assay with M14 melanoma, in the assay on K-562 leukemia, in the assay on HCT-116 colon, with SK-OV-3 ovarian, in the assay on SK-MEL-5 melanoma and in the assay on NCI-H226 lung was greater than 100 µM in each case. The TGI in the assay on OVCAR-4 ovarian, with SNB-75 CNS, in the assay on KM12 colon, with OVCAR-5 ovarian, in the assay with SK-MEL-28 melanoma and in the assay on RPMI-8226 leukemia was greater than 100 µM in each case. The TGI in the assay on LOX IMVI melanoma and in the assay with CAKI-1 renal was greater than 100 µM throughout.

Take `CC(=O)OC(C)c1cc2c(s1)C(=O)c1ccsc1C2=O` (stereo not drawn): the TGI was 0.604 µM in the assay with M14 melanoma; 0.473 µM in the assay with K-562 leukemia; 0.769 µM in the assay with HCT-116 colon; 3.7 µM with SK-OV-3 ovarian; 0.0743 µM in the assay on SK-MEL-5 melanoma; 0.242 µM in the assay with DU-145 prostate. For the same compound, the TGI amounted to 3.79 µM in the assay with NCI-H226 lung; 1.93 µM in the assay on OVCAR-4 ovarian; 0.301 µM in the assay with SNB-75 CNS; 0.306 µM in the assay on KM12 colon; 0.994 µM with OVCAR-5 ovarian; 0.486 µM in the assay on RPMI-8226 leukemia. The TGI with LOX IMVI melanoma turned out to be 0.119 µM; in the assay on CAKI-1 renal, 2.39 µM; with NCI/ADR-RES ovarian, 0.992 µM.
